According to patent publication US20180002692A1, “Sequence Specific and Organism Specific Antimicrobials and Related Materials and Methods” (priority 2015, published 2018):
Entries after “also recorded” stand apart in the source; their conditions may differ.

Tests used:
[1] = system: ampicillin-resistant E. coli; type: cell-based; conditions: no α-TSS (no treatment)
Procedure: Three biological replicates were selected from colonies and pretreated for 16 hr with respective α-TSS concentration in liquid media. After pretreatment, the cultures were diluted 1:100,000 into liquid media with respective concentration of ampicillin and α-TSS and allowed to grow with shaking at 37° C. for 24 hr. The final OD at 562 nm at 24 hr was used for data analysis.
Data fitting analysis was performed in Origin Pro 6.1. Data was fit to a sigmoidal/decay Boltzman function.
The degree of re-sensitization exerted by α-TSS in presence of varying concentrations of ampicillin above and below the MIC determined for α-TSS was then evaluated.

[2] = system: MG1655 E. coli; assay: Growth (optical density, lag time) of MG1655; type: cell-based; conditions: 10 μM antisense inhibitor; for growth of MG1655 E. coli cultures: 24 h
Procedure: MG1655 E. coli cultures were started from individual colonies from 2% LB and 1.5% agar into M9 media. They were diluted 1:10,000 from overnight culture into fresh M9 with respective treatment and grown at 37° C. with 225 rpm shaking. Clinical strains were started from individual colonies grown on cation adjusted Mueller Hinton Broth with 1.5% agar into liquid CAMHB. These were diluted 1:10,000 into CAMHB medium with respective treatment and grown at 37° C. with 225 rpm shaking. Optical density measurements were taking using a Tecan GENios at 562 nm with a bandwidth of 35 nm. Lag time was calculated using Growth Rates Made Easy (Hall et al. Mol. Biol. Evol. 31(1):232-238). […]

[3] = system: MG1655 E. coli; assay: Colony forming unit analysis of MG1655; type: cell-based; conditions: 10 μM, six and eight hours
From the text: The effect of α-lexA, α-fnrS, and α-rpsD on cell viability using a colony forming unit analysis was then determine.

[4] = system: MDR Salmonella typhimurium; assay: Growth of clinical strain MDR S. typhimurium; type: cell-based; conditions: 10 μM
Procedure: (§1) MG1655 E. coli cultures were started from individual colonies from 2% LB and 1.5% agar into M9 media. They were diluted 1:10,000 from overnight culture into fresh M9 with respective treatment and grown at 37° C. with 225 rpm shaking. Clinical strains were started from individual colonies grown on cation adjusted Mueller Hinton Broth with 1.5% agar into liquid CAMHB. These were diluted 1:10,000 into CAMHB medium with respective treatment and grown at 37° C. with 225 rpm shaking. Optical density measurements were taking using a Tecan GENios at 562 nm with a bandwidth of 35 nm. Lag time was calculated using Growth Rates Made Easy (Hall et al. Mol. Biol. Evol. 31(1):232-238).
(§2) MDR E. coli was inhibited by four of the six oligomers tested (α-folC, α-ffh, α-lexA, and α-rpsD), extended-spectrum beta-lactamase (ESBL) K. pneumoniae was inhibited by two of the antisense oligomers (α-fnrS and α-rpsD), and New Delhi metallo-β-lactamase (NDM-1) K. pneumoniae was inhibited by one of the oligomers tested (α-rpsD) (FIGS. 15-16).

[5] = system: CRE E. coli; assay: Growth of clinical strain CRE E. coli; type: cell-based, Escherichia coli; conditions: 10 μM
Procedure: as §1, §2

[6] = system: MDR E. coli; assay: Growth of clinical strain MDR E. coli; type: cell-based; conditions: 10 μM
Procedure: as §1, §2

[7] = system: ESBL K. pneumoniae; assay: Growth of clinical strain ESBL K. pneumoniae; type: cell-based, Klebsiella pneumoniae; conditions: 10 μM
Procedure: as §1, §2

[8] = system: ampicillin-resistant E. coli; type: cell-based
Procedure: pAKgfp1 plasmid was obtained from Addgene for TEM-1 β-lactamase resistance gene, bla (43). The plasmid was cloned into chemically competent Zymo DH5a E. coli (Expressys). Untransformed Zymo DH5a was used as a control strain for β-lactamase activity assays. Liquid cultures were grown in 2% LB, incubated at 37° C. and shaken at 225 rpm. Solid cultures were grown on 2% LB broth, 1.5% agar at 37° C. Ampicillin sodium salt (Sigma Aldrich) was used for selection at a concentration of 300 μg/mL for MIC and CFU analysis. Optical density measurements were taken using a Tecan GENios at 562 nm with a bandwidth of 35 nm. All bacterial freezer stocks were stored in 40% glycerol at −80° C.

[9] = system: bla mRNA; assay: bla mRNA expression by qPCR; type: cell-based, E. coli; conditions: 5 μM α-TSS, 25 μM α-RBS, 25 μM α-YUNR; absence of ampicillin
Procedure: Three biological replicates were used for bla expression analysis. Cultures were pretreated overnight in respective PNA and liquid media in the absence of ampicillin and collected for RNA at 16 hr.
50 μL of the respective culture was added to 100 μL of Bacteria RNAprotect (Qiagen) and incubated at room temperature for 5 min. The cells were then pelleted via centrifugation for 3 min at 10,000 rpm, the supernatant removed, and samples were flash frozen in an ethanol dry ice bath and stored at −80° C. Precautions were taken to protect RNA from RNases using RNaseZap (Life Technologies). RNA was extracted from frozen cell pellets using GeneJET RNA purification kit (Thermo Scientific) and 350-600 ng was treated with Turbo DNA-free (Ambion). 50 ng cDNA was synthesized using Maxima Universal First Stand cDNA synthesis kit (Thermo Scientific). 1.5 ng of cDNA was used for qPCR with Maxima SYBR Green qPCR master mix with ROX normalization (Thermo Scientific) using Illumina Eco qPCR system. Transcript levels were analyzed using the ΔCq method with respect to moderately expressed housekeeping gene cysG (43). Transcript levels were further analyzed for the mutant populations using the ΔΔCq method with respect to the no treatment populations.

Compound	lag time [2]	growth inhibition of MDR S. typhimurium [4]	growth inhibition of CRE E. coli [5]	growth inhibition of MDR E. coli [6]	other results
CC1(C)S[C@@H]2[C@H](NC(=O)[C@H](N)c3ccccc3)C(=O)N2[C@H]1C(=O)O [ampicillin, Ampicillin, reference compound]	–	–	–	–	slope of the transition from resistant to sensitive (Boltzman fit) [1]: −0.0051 ODmLμg^−1; ampicillin concentration up to which growth is without inhibition ([1]; 24 hr): 300 µg/mL; ampicillin concentration where no growth was observed ([1]; 24 hr): 700 µg/mL
KFFKFFKFFK -O-gctttcattccg (antisense GCTTTCATTCCG; all peptide nucleic acid (PNA); (KFF)3K cell-penetrating peptide joined to the N-terminus through an O-linker) [α-lexA, 12-mer antisense PNA centered on start codon of lexA, O-linker to (KFF)3K]	significantly increased lag time	inhibited	inhibited	inhibited	growth of MG1655 E. coli cultures [2]: completely inhibited; also recorded: completely prevented cell growth; also recorded: Complete inhibition; viable cells at six and eight hours [3]: prevented significant increase in viable cells; also recorded: prevents significant increases in viable MG1655 E. coli cells
KFFKFFKFFK -O-taatcatggtat (antisense TAATCATGGTAT; all peptide nucleic acid (PNA); (KFF)3K cell-penetrating peptide joined to the N-terminus through an O-linker) [α-folC, 12-mer antisense PNA centered on start codon of folC, O-linker to (KFF)3K]	–	inhibited	inhibited	inhibited	–
KFFKFFKFFK -O-tcaaacattgtc (antisense TCAAACATTGTC; all peptide nucleic acid (PNA); (KFF)3K cell-penetrating peptide joined to the N-terminus through an O-linker) [α-ffh, 12-mer antisense PNA centered on start codon of ffh, O-linker to (KFF)3K]	–	inhibited	inhibited	inhibited	–
KFFKFFKFFK-O-cacctgcaagag (antisense CACCTGCAAGAG; all peptide nucleic acid (PNA); (KFF)3K cell-penetrating peptide joined to the N-terminus through an O-linker) [α-fnrS]	significantly increased lag time	inhibited	inhibited	–	growth of MG1655 E. coli cultures [2]: completely inhibited; also recorded: completely prevented cell growth; also recorded: Complete inhibition; growth inhibition of ESBL K. pneumoniae [7]: inhibited
KFFKFFKFFK-O-cctttttcaata (antisense CCTTTTTCAATA; PNA, (KFF)3K peptide via O-linker, chemistry not fully specified) [α-RBS]	–	–	–	–	re-sensitization of drug resistant E. coli to ampicillin [8]: re-sensitized drug resistant E. coli to ampicillin; also recorded: re-sensitization of drug resistant E. coli to ampicillin; also recorded: re-sensitize; growth in absence of ampicillin (toxicity of antisense agent) ([8]; absence of ampicillin): non-toxic effect; also recorded: No inhibition; growth of drug-resistant E. coli in presence of ampicillin ([8]; antisense oligomer plus 300 μg/mL ampicillin): hindered cell growth; also recorded: impact growth; also recorded: significant antibiotic effect; minimum inhibitory concentration (MIC) ([8]; in presence of 300 μg/mL ampicillin, after overnight pretreatment with antisense agent): 25 µM; bla mRNA expression [9]: did not affect bla transcript levels; also recorded: did not significantly reduce bla expression
KFFKFFKFFK-O-ttcgacatcaac (antisense TTCGACATCAAC; PNA, (KFF)3K peptide via O-linker, chemistry not fully specified) [α-gyrB, 12-mer antisense PNA centered on start codon of gyrB, O-linker to (KFF)3K]	significantly increased lag time	inhibited	inhibited	–	–
